In patent US12257237B2 (priority 2017, dated 2025):
Values joined by “and” are separate entries in the source; they are usually repeats but may differ in a detail not shown here. Equal values may be shown once.

Experiment: Drug tolerability (body weight) in DD013 dedifferentiated liposarcoma xenograft model
Type: in vivo, Athymic nude mice
Design: key to Animal status: †: sacrificed moribund
Conditions: for Mouse body weight: individual mice
Description: Experiments were performed with female Athymic nude mice, 9-10 weeks old obtained from Harlan Laboratories (Udine, Italy). They were maintained under Specific Pathogen Free conditions with constant temperature and humidity, according to the institutional guidelines.
Tumour growth mice was monitored two/three times a week (depending on tumour growth rate, to avoid unnecessary stress to the animals) by Vernier caliper. Mice were sacrificed when tumour reached a mean weight of 2±0.5 gr. The antitumour activity will be expressed as T/C %, where T and C were the mean tumour weight of treated and control groups, respectively. Mice were monitored daily and weighted at least two times a week. Tolerability was evaluated on the basis of body weight loss (BWL) and clinical observation.

[1] = EDO40 (40 mg/kg), day 23 from inoculum
[2] = EDO40 (40 mg/kg), day 26 from inoculum
[3] = EDO40 (40 mg/kg), day 33 from inoculum
[4] = EDO40 (40 mg/kg), day 36 from inoculum
[5] = EDO40 (40 mg/kg), day 40 from inoculum
[6] = EDO40 (40 mg/kg), day 43 from inoculum
[7] = EDO40 (40 mg/kg), day 50 from inoculum
[8] = EDO40 (40 mg/kg), day 54 from inoculum
[9] = EDO40 (40 mg/kg), day 58 from inoculum
[10] = EDO40 (40 mg/kg), day 62 from inoculum
[11] = EDO40 (40 mg/kg), day 65 from inoculum
[12] = EDO40 (40 mg/kg), day 69 from inoculum
[13] = EDO40 (40 mg/kg), day 72 from inoculum
[14] = EDO40 (40 mg/kg), day 75 from inoculum
[15] = EDO40 (40 mg/kg), day 79 from inoculum
[16] = EDO40 (40 mg/kg), day 83 from inoculum
[17] = EDO40 (40 mg/kg), day 87 from inoculum
[18] = EDO40 (40 mg/kg), day 90 from inoculum
[19] = EDO40 (40 mg/kg), day 94 from inoculum
[20] = EDO40 (40 mg/kg), day 98 from inoculum
[21] = EDO40 (40 mg/kg), day 100 from inoculum
[22] = EDO60 (60 mg/kg), day 23 from inoculum
[23] = EDO60 (60 mg/kg), day 26 from inoculum
[24] = EDO60 (60 mg/kg), day 29 from inoculum
[25] = EDO60 (60 mg/kg), day 33 from inoculum
[26] = EDO60 (60 mg/kg), day 36 from inoculum
[27] = EDO60 (60 mg/kg), day 40 from inoculum
[28] = EDO80 (80 mg/kg), day 23 from inoculum
[29] = EDO80 (80 mg/kg), day 26 from inoculum
[30] = EDO80 (80 mg/kg), day 29 from inoculum
[31] = EDO80 (80 mg/kg), day 33 from inoculum
[32] = EDO80 (80 mg/kg), day 36 from inoculum
[33] = EDO80 (80 mg/kg), day 40 from inoculum
[34] = EDO80 (80 mg/kg), day 43 from inoculum
[35] = EDO80 (80 mg/kg), day 47 from inoculum
[36] = EDO80 (80 mg/kg), day 50 from inoculum
[37] = EDO80 (80 mg/kg), day 54 from inoculum
[38] = EDO80 (80 mg/kg), day 58 from inoculum
[39] = EDO80 (80 mg/kg), day 62 from inoculum
[40] = EDO80 (80 mg/kg), day 65 from inoculum
[41] = EDO80 (80 mg/kg), day 69 from inoculum
[42] = EDO80 (80 mg/kg), day 72 from inoculum
[43] = EDO80 (80 mg/kg), day 75 from inoculum
[44] = EDO80 (80 mg/kg), day 79 from inoculum
[45] = EDO80 (80 mg/kg), day 83 from inoculum
[46] = EDO80 (80 mg/kg), day 87 from inoculum
[47] = EDO80 (80 mg/kg), day 90 from inoculum
[48] = EDO80 (80 mg/kg), day 94 from inoculum
[49] = EDO80 (80 mg/kg), day 98 from inoculum
[50] = EDO80 (80 mg/kg), day 100 from inoculum
[51] = EDO80 (80 mg/kg), day 103 from inoculum

Cn1c(CCCCCCC(=O)NO)nc2cc(N(CCCl)CCCl)ccc21 [EDO-S101, 7-(5-(bis(2-chloroethyl)amino)-1-methyl-1H-benzo[d]imidazol-2-yl)-N-hydroxyheptanamide]
rapid BWL of one mouse (sacrificed) (80 mg/kg group, between day 75 and 79 from inoculum): > 30%
BWL % [1]: 0.0%
Mouse body weight, Mean [1]: 23.6 g
BWL % [2]: −1.7%
Mouse body weight, Mean [2]: 23.2 g
Mouse body weight, Mean (EDO40 (40 mg/kg), day 29 from inoculum): 24.7 g
BWL % [3]: 2.4%
Mouse body weight, Mean [3]: 24.2 g
BWL % [4]: 4.1%
Mouse body weight, Mean [4]: 24.6 g
BWL % [5]: 6.1%
Mouse body weight, Mean [5]: 25.0 g
BWL % [6]: 6.2%
Mouse body weight, Mean [6]: 25.1 g
Mouse body weight, Mean (EDO40 (40 mg/kg), day 47 from inoculum): 26.0 g
BWL % [7]: 11.7%
Mouse body weight, Mean [7]: 26.4 g
BWL % [8]: 10.1%
Mouse body weight, Mean [8]: 26.0 g
BWL % [9]: 8.3%
Mouse body weight, Mean [9]: 25.6 g
BWL % [10]: 11.0%
Mouse body weight, Mean [10]: 26.2 g
BWL % [11]: 9.1%
Mouse body weight, Mean [11]: 25.8 g
BWL % [12]: 13.3%
Mouse body weight, Mean [12]: 26.8 g
BWL % [13]: 13.3%
Mouse body weight, Mean [13]: 26.8 g
BWL % [14]: 15.6%
Mouse body weight, Mean [14]: 27.3 g
BWL % [15]: 13.8%
Mouse body weight, Mean [15]: 26.9 g
BWL % [16]: 14.3%
Mouse body weight, Mean [16]: 27.0 g
BWL % [17]: 14.4%
Mouse body weight, Mean [17]: 27.0 g
BWL % [18]: 17.9%
Mouse body weight, Mean [18]: 27.8 g
BWL % [19]: 16.0%
Mouse body weight, Mean [19]: 27.4 g
BWL % [20]: 18.3%
Mouse body weight, Mean [20]: 27.9 g
BWL % [21]: 15.7%
Mouse body weight, Mean [21]: 27.3 g
BWL % [22]: 0.0%
Mouse body weight, Mean [22]: 23.3 g
BWL % [23]: −4.5%
Mouse body weight, Mean [23]: 22.3 g
BWL % [24]: 1.7%
Mouse body weight, Mean [24]: 23.7 g
BWL % [25]: −0.8%
Mouse body weight, Mean [25]: 23.1 g
BWL % [26]: 2.5%
Mouse body weight, Mean [26]: 23.9 g
BWL % [27]: −0.6%
Mouse body weight, Mean [27]: 23.2 g
Mouse body weight, Mean (EDO60 (60 mg/kg), day 43 from inoculum): 24.1 g
Mouse body weight, Mean (EDO60 (60 mg/kg), day 47 from inoculum): 25.2 g
Mouse body weight, Mean (EDO60 (60 mg/kg), day 50 from inoculum): 25.3 g
Mouse body weight, Mean (EDO60 (60 mg/kg), day 54 from inoculum): 25.6 g
Mouse body weight, Mean (EDO60 (60 mg/kg), day 58 from inoculum): 25.5 g
Mouse body weight, Mean (EDO60 (60 mg/kg), day 62 from inoculum): 25.5 g
Mouse body weight, Mean (EDO60 (60 mg/kg), day 69 from inoculum): 25.9 g
Mouse body weight, Mean (EDO60 (60 mg/kg), day 72 from inoculum): 26.3 g
Mouse body weight, Mean (EDO60 (60 mg/kg), day 75 from inoculum): 26.0 g
Mouse body weight, Mean (EDO60 (60 mg/kg), day 79 from inoculum): 24.8 g
Mouse body weight, Mean (EDO60 (60 mg/kg), day 83 from inoculum): 24.5 g
Mouse body weight, Mean (EDO60 (60 mg/kg), day 87 from inoculum): 24.6 g
Mouse body weight, Mean (EDO60 (60 mg/kg), day 90 from inoculum): 24.8 g
Mouse body weight, Mean (EDO60 (60 mg/kg), day 94 from inoculum): 25.3 g
Mouse body weight, Mean (EDO60 (60 mg/kg), day 98 from inoculum): 26.2 g
Mouse body weight, Mean (EDO60 (60 mg/kg), day 111 from inoculum): 25.6 g
Mouse body weight, Mean (EDO60 (60 mg/kg), day 114 from inoculum): 25.3 g
Mouse body weight, Mean (EDO60 (60 mg/kg), day 118 from inoculum): 25.5 g
BWL % [28]: 0.0%
Mouse body weight, Mean [28]: 24.2 g
Mouse body weight [28]: 26.1 g and 25.7 g and 25 g and 23.1 g and 24 g and 26.2 g and 22.4 g and 22.3 g
BWL % [29]: −3.4%
Mouse body weight, Mean [29]: 21.9 g
Mouse body weight [29]: 23.4 g and 23.6 g and 22 g and 21.3 g and 20.9 g and 20.1 g and 22.4 g and 21.6 g and 21.9 g
BWL % [30]: 4.2%
Mouse body weight, Mean [30]: 21.7 g
Mouse body weight [30]: 22.7 g and 22.6 g and 21.5 g and 22.2 g and 21 g (3×) and 21.6 g (2×)
BWL % [31]: 1.3%
Mouse body weight, Mean [31]: 23.7 g
Mouse body weight [31]: 25.1 g (2×) and 24 g and 23.1 g and 21.9 g and 22.5 g
BWL % [32]: 5.9%
Mouse body weight, Mean [32]: 25.5 g
Mouse body weight [32]: 27 g and 25.3 g and 24.7 g and 23.8 g and 26.3 g and 24.2 g and 24.6 g
BWL % [33]: 2.5%
Mouse body weight [33]: 28.6 g and 27 g and 25.7 g and 24.4 g (2×) and 27.9 g and 24 g
BWL % [34]: 8.0%
Mouse body weight, Mean [34]: 25.8 g
Mouse body weight [34]: 28.5 g and 26.5 g and 25 g (2×) and 26.9 g and 24.2 g and 24.4 g
BWL % [35]: 5.9%
Mouse body weight, Mean [35]: 25.9 g
Mouse body weight [35]: 27.9 g and 26.1 g and 24.6 g (2×) and 24.2 g and 27.4 g and 24.4 g
BWL % [36]: 7.6%
Mouse body weight, Mean [36]: 25.8 g
Mouse body weight [36]: 27.9 g and 26.8 g and 24.6 g and 24.4 g and 26.3 g and 23.2 g and 25.3 g
BWL % [37]: 8.0%
Mouse body weight, Mean [37]: 26.2 g
Mouse body weight [37]: 27.7 g and 26.7 g and 25.8 g and 25 g (2×) and 28 g and 24.8 g
BWL % [38]: 12.2%
Mouse body weight, Mean [38]: 27.0 g
Mouse body weight [38]: 28.7 g and 29.8 g and 28 g and 27.4 g and 26.9 g and 25 g (2×)
BWL % [39]: 8.4%
Mouse body weight, Mean [39]: 23.5 g
Mouse body weight [39]: 25.7 g and 24.4 g and 23.9 g and 24 g and 22.7 g and 21.9 g and 23.7 g and 23.8 g and 21.4 g
BWL % [40]: 8.0%
Mouse body weight, Mean [40]: 23.9 g
BWL % [41]: 6.3%
Mouse body weight, Mean [41]: 25.2 g
Mouse body weight [41]: 28.7 g
BWL % [42]: 9.7%
Mouse body weight, Mean [42]: 25.9 g
Mouse body weight [42]: 30.7 g
BWL % [43]: 13.9%
Mouse body weight, Mean [43]: 26.4 g
Mouse body weight [43]: 30.6 g
BWL % [44]: 8.8%
Mouse body weight, Mean [44]: 24.6 g
Mouse body weight [44]: 28.7 g
BWL % [45]: 7.6%
Mouse body weight, Mean [45]: 24.1 g
Mouse body weight [45]: 24.1 g
Animal status (EDO80 (80 mg/kg), day 83 from inoculum, mouse # 56): †
BWL % [46]: 5.0%
Mouse body weight, Mean [46]: 23.8 g
Mouse body weight [46]: 25.3 g
BWL % [47]: 2.9%
Mouse body weight, Mean [47]: 25.4 g
Mouse body weight [47]: 29.2 g
BWL % [48]: 0.0%
Mouse body weight, Mean [48]: 27.4 g
BWL % [49]: 2.9%
Mouse body weight, Mean [49]: 28.0 g
Mouse body weight [49]: 31.1 g
BWL % [50]: 0.4%
Mouse body weight, Mean [50]: 27.5 g
Mouse body weight [50]: 29.7 g
BWL % [51]: −0.8%
Mouse body weight, Mean [51]: 27.3 g
Mouse body weight [51]: 25.9 g
BWL (all doses and schedules): < 5%
